Laboratory results: patent US4343808A, “Method of inhibiting sickling of sickle erythrocytes” (The Dow Chemical Company, priority 1980, dated 1982)

How the values were obtained:
Hb-S = Hb-S (Homo sapiens, UniProt P68871+P69905, E7V); assay: Oxygen-Affinity Assay (whole Hb-S blood); format: cell-based; conditions: 37° C.
Experimental: The compounds described herein were tested in an "Oxygen-Affinity Assay" to measure the ability of the compound to influence the Hb-S oxygen affinity. There is a relationship between oxygen binding and Hb-S gelation and thus a measure of oxygen affinity is an index of Hb-S aggregation within the red blood cell. Hemoglobin S polymers decrease the overall oxygen affinity. Thus a return to normal of Hb-S oxygen affinity is a measure of decreased gelation.
For measurements of oxygen equilibria whole Hb-S blood was equilibrated in a tonometer at 37° C. and measurements were made in the presence of a 10 millimolar (mM) concentration of the test compound. Some of the compounds were also tested at a 5 mM concentration. The whole blood pH, oxygen tension, and blood PO2 were measured.
The percentage of oxygen saturation was plotted against the partial pressure of oxygen (mm Hg). The P50 value (oxygen tension at 50% saturation) was determined for each control and treated whole blood sample and the difference (ΔP50) between the control and treated whole blood sample noted. As used herein, a negative ΔP50 represents a change toward a normal Hb-S oxygen affinity and thus is a measure of the test compound's ability to inhibit the sickling of sickle erythrocytes.

[1] = tested on: sickle erythrocytes (sickle cell blood); assay: Reverse Erythrocyte Morphology, deoxygenation induced sickling; format: cell-based, human
Experimental: (§1) Blood collected from individuals with homozygous sickle cell disease, as well as normal blood, was anticoagulated with ethylenediaminetetraacetic acid (EDTA) and refrigerated until used. To portions of the blood samples were added appropriate volumes of a solution of the compound to be tested so that final concentrations of 0.0125 molar (M), 0.025 M, 0.05 M or 0.1 M were obtained, and the mixtures were incubated at 37° C. for 30 minutes. The test compounds were dissolved in saline. Appropriate volumes of saline were added to the control samples. Urea in invert sugar (UIS) at 0.05 M to 1.5 M concentrations was used as an agent capable of transforming sickled cells into normal forms and was therefore used as a positive control.
(§2) Anoxic sickling (deoxygenation) was induced by exposing sickle blood to a hydrated 95% nitrogen, 5% carbon dioxide atmosphere for 60 minutes.
(§3) After the sickling stimulus, slides were prepared. A volume of 0.2 ml of sickled cells were fixed in 1.0 ml of 3.2% glutaraldehyde in 0.1 M cacodylic buffer. Wet slides were prepared and sealed.
(§4) The slides were scored for normal cells (Typ.), atypical cells (Atyp.) and sickled cells (Sickle) on the basis of counting 300 cells per slide.
(§5) The compound 2-((4-cyanophenoxy)methyl)-2-imidazoline p-toluenesulfonate (Example 2) was tested for its ability to reverse the sickling process by first applying the hereinabove noted sickling stimuli to the sickle cell blood and then adding the test compound to the red cell suspensions.

[2] = tested on: sickle erythrocytes (intact sickle cells); assay: Blockade Erythrocyte Morphology, chemically induced sickling (sodium metabisulfite); format: cell-based, human
Experimental: (§6) The compound 2-((4-cyanophenoxy)methyl)-2-imidazoline p-toluenesulfonate (Example 2) and 2-((3-cyanophenoxy)methyl)-2-imidazoline p-toluenesulfonate (Example 4) were tested for anti-sickling activity using a suspension of intact sickle cells as follows:
as §1
(§7) Sickling was induced chemically by reducing the blood samples with an equal volume of a 2% solution of sodium metabisulfite in phosphate-buffered saline for 30 minutes.
as §3, §4

Toxicity (LD50) in mice = conditions: mouse, in vivo, ip, intraperitoneal injection
[3] = tested on: sickle erythrocytes (sickle cell blood); assay: Reverse Erythrocyte Morphology, chemically induced sickling (sodium metabisulfite); format: cell-based, human
Experimental: as §1, §7, §3, §4, §5

[4] = tested on: sickle erythrocytes (intact sickle cells); assay: Blockade Erythrocyte Morphology, deoxygenation induced sickling; format: cell-based, human; conditions: for interference with deoxygenation induced sickling: Table 1
Experimental: as §6, §1, §2, §3, §4

[5] = target: T1, deoxyhemoglobin S (Deoxy Hb-S) (Homo sapiens, UniProt P68871+P69905, E7V); assay: Solubility of deoxyhemoglobin S (hemoglobin gelation); format: biochemical; conditions: 10 mM
T1 construct: native tetramer alpha2 betaS2
Experimental: The compound 2-((3-cyanophenoxy)methyl)-2-imidazoline p-toluenesulfonate was tested to determine its ability to inhibit sickle erythrocyte hemoglobin gelation as follows:
The solubility of deoxyhemoglobin S (Deoxy Hb-S) was determined utilizing substantially the same procedure described by Behe, M. J., Englander, S. W., Biochemistry 18: 4196-4201 (1979). Assays were done to determine the equilibrium solubility of Hb-S in the presence of inhibitor (i.e., test compound). […] Test mixtures were placed in a 4 centimeter (cm) length of thin quartz tubing sealed at one end, and then incubated at 37° C. for two hours to achieve gelation, and then re-equilibrated in a water bath (20° C.) for 20 minutes. The quartz tubing containing the test mixture was then placed in a glycerol filled centrifuge tube (topped by a rubber ring to center the quartz tubing) and centrifuged for two hours at 140,000 times gravity. […] The concentration of the hemoglobin in the supernatant was determined by measuring the absorbance at 540 nanometers (nm) after a 300-fold dilution with normally oxygenated buffer.
The Relative Solubility is a measure of the ability of the test compound to increase the solubility of deoxyhemoglobin S and is readily determined by comparing the solubility of the treated (i.e., test compound present) sample versus the control (i.e., test compound absent) sample.

[6] = over the ranges tested (0.025-0.1 M)
[7] = reverse, deoxygenation, 0.025 M, vs control
[8] = reverse, deoxygenation, 0.05 M, vs control
[9] = reverse, deoxygenation, 0.1 M, vs control
[10] = reverse, chemically induced, 0.025 M, vs control
[11] = reverse, chemically induced, 0.05 M
[12] = reverse, chemically induced, 0.05 M, vs control
[13] = reverse, chemically induced, 0.1 M
[14] = reverse, chemically induced, 0.1 M, vs control
[15] = Homo sapiens, Erythrocyte, deoxygenation, 0.025 M, vs control, read-out: Percent Change, Sickle (sickled cells)
[16] = Homo sapiens, Erythrocyte, deoxygenation, 0.05 M, vs control, read-out: Percent Change, Sickle (sickled cells)
[17] = deoxygenation, 0.025 M, vs control
[18] = deoxygenation, 0.05 M, vs control
[19] = deoxygenation, 0.1 M, vs control
[20] = deoxygenation, 0.0125 M, vs control

Cl.FC(F)(F)c1cccc(OCC2=NCCN2)c1 [Example 7, 2-(3-Trifluoromethylphenoxy)methyl-2-imidazoline Hydrochloride]
Δ P50 (oxygen tension at 50% saturation, difference control vs treated) (Hb-S; 10 mM): -3.0 mm Hg

Cl.FC(F)(F)c1cccc(NCC2=NCCN2)c1 [Example 6, 2-((3-Trifluoromethylanilino)methyl)-2-imidazoline Hydrochloride]
Δ P50 (oxygen tension at 50% saturation, difference control vs treated) (Hb-S; 10 mM): -4.3 mm Hg

Cl.c1ccc(OCC2=NCCN2)cc1 [Example 8, 2-(Phenoxymethyl)-2-imidazoline Hydrochloride]
Δ P50 (oxygen tension at 50% saturation, difference control vs treated) (Hb-S; 10 mM): -5.0 mm Hg

Cc1ccc(S(=O)(=O)O)cc1.N#Cc1ccc(OCC2=NCCN2)cc1 [Example 2, 2-((4-Cyanophenoxy)methyl)-2-imidazoline p-Toluenesulfonate]
inhibition at 25000 µM ([1]; Homo sapiens, Erythrocyte, reverse, deoxygenation, 0.025 M, vs control, read-out: Percent Change, Sickle (sickled cells)): 47%
inhibition at 50000 µM ([1]; Homo sapiens, Erythrocyte, reverse, deoxygenation, 0.05 M, vs control, read-out: Percent Change, Sickle (sickled cells)): 46%
inhibition at 100000 µM ([1]; Homo sapiens, Erythrocyte, reverse, deoxygenation, 0.1 M, vs control, read-out: Percent Change, Sickle (sickled cells)): 41%
reversal of sickling induced by deoxygenation [1, 6]: effectively reversed sickling
Lysis ([1]; reverse, deoxygenation, 0.025 M): -
Percent Change, Atyp. (atypical cells) [1, 7]: -22%
Percent Change, Typ. (normal cells) [1, 7]: +133%
Lysis ([1]; reverse, deoxygenation, 0.05 M): -
Percent Change, Atyp. (atypical cells) [1, 8]: -26%
Percent Change, Typ. (normal cells) [1, 8]: +142%
Lysis ([1]; reverse, deoxygenation, 0.1 M): ± (the appearance of some cell lysis at that particular test compound concentration)
hemolysis (in words) ([1]; reverse, deoxygenation, 0.1 M): some hemolysis observed
Percent Change, Atyp. (atypical cells) [1, 9]: -46%
Percent Change, Typ. (normal cells) [1, 9]: +202%
sickling inhibitory effect in the chemically induced test system [2]: slightly sickling inhibitory effect
Lysis ([2]; 0.025 M): -
Percent Change, Atyp. (atypical cells) ([2]; 0.025 M, vs control): -14%
Percent Change, Typ. (normal cells) ([2]; 0.025 M, vs control): +56%
Lysis ([2]; 0.05 M): -
Percent Change, Atyp. (atypical cells) ([2]; 0.05 M, vs control): +138%
Percent Change, Typ. (normal cells) ([2]; 0.05 M, vs control): +84%
Lysis ([2]; 0.1 M): ± (the appearance of some cell lysis at that particular test compound concentration)
Percent Change, Atyp. (atypical cells) ([2]; 0.1 M, vs control): -63%
Percent Change, Typ. (normal cells) ([2]; 0.1 M, vs control): +78%
inhibition at 25000 µM ([2]; Homo sapiens, Erythrocyte, 0.5 h, 0.025 M, vs control, read-out: Percent Change, Sickle (sickled cells)): 27%
inhibition at 50000 µM ([2]; Homo sapiens, Erythrocyte, 0.5 h, 0.05 M, vs control, read-out: Percent Change, Sickle (sickled cells)): 29%
inhibition at 100000 µM ([2]; Homo sapiens, Erythrocyte, 0.5 h, 0.1 M, vs control, read-out: Percent Change, Sickle (sickled cells)): 32%
LD50 (Toxicity (LD50) in mice): 316 mg/kg
inhibition at 25000 µM ([3]; Homo sapiens, Erythrocyte, reverse, chemically induced, 0.025 M, vs control, read-out: Percent Change, Sickle (sickled cells)): 27%
inhibition at 50000 µM ([3]; Homo sapiens, Erythrocyte, reverse, chemically induced, 0.05 M, vs control, read-out: Percent Change, Sickle (sickled cells)): 52%
inhibition at 100000 µM ([3]; Homo sapiens, Erythrocyte, reverse, chemically induced, 0.1 M, vs control, read-out: Percent Change, Sickle (sickled cells)): 48%
reversal of sickling induced chemically [3, 6]: effectively reversed sickling
Lysis ([3]; reverse, chemically induced, 0.025 M): -
Percent Change, Atyp. (atypical cells) [3, 10]: -49%
Percent Change, Typ. (normal cells) [3, 10]: +48%
Lysis [3, 11]: ± (the appearance of some cell lysis at that particular test compound concentration)
hemolysis (in words) [3, 11]: some hemolysis observed
Percent Change, Atyp. (atypical cells) [3, 12]: -73%
Percent Change, Typ. (normal cells) [3, 12]: +87%
Lysis [3, 13]: ± (the appearance of some cell lysis at that particular test compound concentration)
hemolysis (in words) [3, 13]: some hemolysis observed
Percent Change, Atyp. (atypical cells) [3, 14]: -96%
Percent Change, Typ. (normal cells) [3, 14]: +86%
inhibition at 25000 µM [4, 15]: 19%
inhibition at 50000 µM [4, 16]: 27%
inhibition at 100000 µM ([4]; Homo sapiens, Erythrocyte, deoxygenation, 0.1 M, vs control, read-out: Percent Change, Sickle (sickled cells)): 61%
interference with deoxygenation induced sickling [4]: interfered with deoxygenation induced sickling
Lysis ([4]; deoxygenation, 0.025 M): -
Percent Change, Atyp. (atypical cells) [4, 17]: -36%
Percent Change, Typ. (normal cells) [4, 17]: +86%
Lysis ([4]; deoxygenation, 0.05 M): -
cell lysis (in words) ([4]; deoxygenation, 0.05 M): without the appearance of cell lysis
Percent Change, Atyp. (atypical cells) [4, 18]: -36%
Percent Change, Typ. (normal cells) [4, 18]: +106%
Lysis ([4]; deoxygenation, 0.1 M): ± (the appearance of some cell lysis at that particular test compound concentration)
Percent Change, Atyp. (atypical cells) [4, 19]: -39%
Percent Change, Typ. (normal cells) [4, 19]: +170%
Δ P50 (oxygen tension at 50% saturation, difference control vs treated) (Hb-S; 10 mM): -9.1 mm Hg

CS(=O)(=O)c1ccc(OCC2=NCCN2)cc1.Cl [Example 3, 2-((4-(Methylsulfonyl)phenoxy)methyl)-2-imidazoline Hydrochloride]
Δ P50 (oxygen tension at 50% saturation, difference control vs treated) (Hb-S; 10 mM): -7.0 mm Hg

O=[N+]([O-])c1cccc(OCC2=NCCN2)c1 [Example 1]
Δ P50 (oxygen tension at 50% saturation, difference control vs treated) (Hb-S; 5 mM): -2 mm Hg
Δ P50 (oxygen tension at 50% saturation, difference control vs treated) (Hb-S; 10 mM): -10.6 mm Hg

Cc1ccc(S(=O)(=O)O)cc1.N#Cc1cccc(OCC2=NCCN2)c1 [Example 4, 2-((3-cyanophenoxy)methyl)-2-imidazoline p-toluenesulfonate]
solubility of deoxyhemoglobin S (in words) [5]: increased
inhibition at 12500 µM ([4]; Homo sapiens, Erythrocyte, deoxygenation, 0.0125 M, vs control, read-out: Percent Change, Sickle (sickled cells)): 33%
inhibition at 25000 µM [4, 15]: 69%
inhibition at 50000 µM [4, 16]: 77%
interference with deoxygenation induced sickling [4]: interfered with deoxygenation induced sickling
Lysis ([4]; deoxygenation, 0.0125 M): -
Percent Change, Atyp. (atypical cells) [4, 20]: -65%
Percent Change, Typ. (normal cells) [4, 20]: +201%
Lysis ([4]; deoxygenation, 0.025 M): -
Percent Change, Atyp. (atypical cells) [4, 17]: -78%
Percent Change, Typ. (normal cells) [4, 17]: +316%
Lysis ([4]; deoxygenation, 0.05 M): -
cell lysis (in words) ([4]; deoxygenation, 0.05 M): without the appearance of cell lysis
Percent Change, Atyp. (atypical cells) [4, 18]: -74%
Percent Change, Typ. (normal cells) [4, 18]: +407%
Δ P50 (oxygen tension at 50% saturation, difference control vs treated) (Hb-S; 5 mM): -1 mm Hg
Δ P50 (oxygen tension at 50% saturation, difference control vs treated) (Hb-S; 10 mM): -13.7 mm Hg

CSc1ccc(OCC2=NCCN2)cc1C [Example 5, 2-((4-(Methylthio)-m-tolyloxy)methyl)-2-imidazoline]
Δ P50 (oxygen tension at 50% saturation, difference control vs treated) (Hb-S; 5 mM): -11 mm Hg
Δ P50 (oxygen tension at 50% saturation, difference control vs treated) (Hb-S; 10 mM): -14.7 mm Hg
